A short description of data set [1]: Determination of the equilibrium dampness. In kind it is physicochemical. Particulars: 24 hours at 23° C.; relative humidity at which neither expulsion nor retention of water is effected; lower is better. An excerpt: (§1) The favorable action of the compounds, which are to be used in accordance with the invention, with respect to their capacity for the absorption and retention of water, was established by means of the test methods described hereinafter. A process for determining the equilibrium dampness which is indicative of the water retention capacity, and the determination of the water retention, rehydration and elasticity of impregnated pig epidermis are described in these tests.
The substances (approximately 300 to 500 mg) to be tested were moistened with a defined quantity of water and were exposed for 24 hours at 23° C. to various relative atmospheric humidities (1%, 30%, 47%, 65%, 89% and 100% relative humidity). The quantity of water absorbed or desorbed was determined gravimetrically and plotted on a graph. The relative humidity at which neither expulsion nor retention of water is effected can be determined from the resultant curves. This value, which is designated as the "equilibrium dampness", is a measure of the water retention capacity of a substance. The lower the value, the more positive is the assessment of the product. Furthermore, the hygroscopicity of the substance can be read from the slope of the curve.

The subject of data set [2] is pig epidermis. The data set can be described thus: Water retention of impregnated pig epidermis. To be noted: 24 hours, 23° C., soaked 2 h in 10% solution, improvement vs blank value (water only).
Excerpt: as §1
(§2) Immediately after the pigs have been killed, the skin bristles are cut off by means of a shearing machine (shearing head 0.1 mm). The pigs are soaked for approximately 3 to 5 minutes in warm water of 60° C., the epidermis is subsequently peeled off and stored at -20° C. until it is used.
(§3) Stamped out pieces of epidermis (1×2 cm) were soaked for two hours in a 10% solution of the test substance. Excess moisture was then removed under standardized conditions by means of a small press, and the pieces were dried for 24 hours, hanging freely between 2 clamps in a 100 ml Erlenmeyer flask at 23° C., both at 30% relative humidity and 50% relative humidity (set by mixtures of sulfuric acid and water). The drying out of the impregnated test pieces to X% of the initial weight was compared with the corresponding value of the epidermis which had been soaked only in water (blank value). In Table I, the improvement in the water retention and in the rehydration as compared with the blank value is given in Δ% H2 O. The deviations in each double test amounted to a maximum of ±2 absolute units. The test was repeated if greater deviations occurred. The rehydration was determined analogously by drying the pig epidermis, which had been impregnated and from which the excess moisture had been removed, for 24 hours at 30% relative humidity, and by subsequent incubation for 24 hours at 90% relative humidity.

In data set [3] the test system is pig epidermis. The data set is described as follows: Elasticity measurements made on the impregnated pig epidermis. To be noted: 24 hours, soaked 2 h in 10% aqueous solution; for mm stretch with between 5 and 30 pound loading at 75% r.h.: blank value 0; for mm stretch with between 5 and 30 pound loading at 90% r.h.: blank value 0.3-0.5. On the procedure:
A process for determining the equilibrium dampness which is indicative of the water retention capacity, and the determination of the water retention, rehydration and elasticity of impregnated pig epidermis are described in these tests.
as §2
Stamped out pieces of pig epidermis (1×6 cm) were soaked for two hours in a 10% aqueous solution of the substance which was to be tested, and excess moisture was removed from these pieces under standarized conditions. […] The amount of stretch in mm, measured in the Hooke range at a load between 5 to 30 pund, was determined as a measure of the elasticity.

For data set [4], the system named is pig epidermis. The data set is described as follows: Rehydration of impregnated pig epidermis. Particulars: dried 24 h at 30% r.h., then incubated 24 h at 90% r.h.; 10% solution; improvement vs blank value.
Excerpt: as §1, §2, §3

As to `O=C(NCCO)OCCO` [Product A, N-(2-hydroxyethyl)-carbamide acid-2-hydroxyethyl ester], the Equilibrium dampness in data set [1] came to 58 % r.h. In the data set on pig epidermis [2], the “Water Retention, % H2O after drying out at 30% r.h.” value (from here on “Water Retention … at 30% r.h.”) is 25 Δ% H2O and the “Water Retention, % H2O after drying out at 50% r.h.” value (“Water Retention … at 50% r.h.” below) was 26 Δ% H2O. Also, in the data set on pig epidermis [3], the “mm stretch with between 5 and 30 pound loading at 75% r.h.” value (shortened to “mm stretch … at 75% r.h.”) was 1.1 mm; the “mm stretch with between 5 and 30 pound loading at 90% r.h.” value (“mm stretch … at 90% r.h.” below) came out at 5.5 mm. The “Rehydration, Δ% water absorption at 90% r.h.” value in the data set on pig epidermis [4] is 62 Δ% H2O.

`CC(O)CNC(=O)OCCO` (stereo not drawn) [Product B, N-(2-hydroxypropyl)-carbamide acid-2-hydroxyethyl ester] registered an Equilibrium dampness in data set [1] of 58 % r.h. Also, in the data set on pig epidermis [2], the “Water Retention … at 30% r.h.” value is given as 23 Δ% H2O and the “Water Retention … at 50% r.h.” value is recorded as 22 Δ% H2O. In the data set on pig epidermis [3], the “mm stretch … at 75% r.h.” value is 1.0 mm; the “mm stretch … at 90% r.h.” value is listed as 6.0 mm. Also, the “Rehydration, Δ% water absorption at 90% r.h.” value in the data set with pig epidermis [4] is 70 Δ% H2O.

As for `CC1(C)COC(=O)N1` [Product F, 4,4-Dimethyl-oxazolidine-2-one], the Equilibrium dampness in data set [1] came out at 83 % r.h. Besides, in the data set with pig epidermis [2], the “Water Retention … at 30% r.h.” value was 5 Δ% H2O and the “Water Retention … at 50% r.h.” value was 7 Δ% H2O. In addition, in the data set with pig epidermis [3], the “mm stretch … at 75% r.h.” value came out at 0.4 mm; the “mm stretch … at 90% r.h.” value was 7.4 mm. In addition, in the data set on pig epidermis [4], the “Rehydration, Δ% water absorption at 90% r.h.” value was 5 Δ% H2O.

Take `O=C1NC(CO)(CO)CO1` [Product H, 4,4-bis-hydroxymethyl-oxazolidine-2-one]: in data set [1], the Equilibrium dampness is recorded as 76 % r.h. Also, in the data set on pig epidermis [2], the “Water Retention … at 30% r.h.” value is 12 Δ% H2O and the “Water Retention … at 50% r.h.” value is 15 Δ% H2O. In the data set with pig epidermis [3], the “mm stretch … at 75% r.h.” value is given as 0.5 mm; the “mm stretch … at 90% r.h.” value came to 2.6 mm. Further, in the data set on pig epidermis [4], the “Rehydration, Δ% water absorption at 90% r.h.” value is 10 Δ% H2O.

Regarding `O=C1OCCN1CCO` [Product I, N-(2-hydroxyethyl)-oxazolidine-2-one], the Equilibrium dampness in data set [1] is 68 % r.h. In the data set on pig epidermis [2], the “Water Retention … at 30% r.h.” value is recorded as 10 Δ% H2O and the “Water Retention … at 50% r.h.” value is 16 Δ% H2O. Moreover, in the data set on pig epidermis [3], the “mm stretch … at 75% r.h.” value is on record as 0.8 mm; the “mm stretch … at 90% r.h.” value was determined as 6.0 mm. In addition, the “Rehydration, Δ% water absorption at 90% r.h.” value with pig epidermis [4] is listed as 16 Δ% H2O.
